Measurements: ChEMBL document CHEMBL1151043, “The synthesis and antibacterial activity of 2-para-quarternary ammoniomethylphenyl-carbapenems” (1993)

Assays:
Staphylococcus aureus = assay: In vitro antibacterial activity against Staphylococcus aureus relative to thienamycin; type: functional
Escherichia coli = assay: In vitro antibacterial activity against Escherichia coli relative to thienamycin; type: functional
Proteus = assay: In vitro antibacterial activity against Proteus relative to thienamycin; type: functional, Proteus sp.
Klebsiella = assay: In vitro antibacterial activity against Klebsiella relative to thienamycin; type: functional
Pseudomonas = assay: In vitro antibacterial activity against Pseudomonas relative to thienamycin; type: functional
[1] = molecular target: T1, Dipeptidase 1 (Sus scrofa) (UniProt P22412); assay: Susceptibility of compound towards porcine Dehydropeptidase-1 relative to imipenem as […] was calculated
T1 sequence (whole entry): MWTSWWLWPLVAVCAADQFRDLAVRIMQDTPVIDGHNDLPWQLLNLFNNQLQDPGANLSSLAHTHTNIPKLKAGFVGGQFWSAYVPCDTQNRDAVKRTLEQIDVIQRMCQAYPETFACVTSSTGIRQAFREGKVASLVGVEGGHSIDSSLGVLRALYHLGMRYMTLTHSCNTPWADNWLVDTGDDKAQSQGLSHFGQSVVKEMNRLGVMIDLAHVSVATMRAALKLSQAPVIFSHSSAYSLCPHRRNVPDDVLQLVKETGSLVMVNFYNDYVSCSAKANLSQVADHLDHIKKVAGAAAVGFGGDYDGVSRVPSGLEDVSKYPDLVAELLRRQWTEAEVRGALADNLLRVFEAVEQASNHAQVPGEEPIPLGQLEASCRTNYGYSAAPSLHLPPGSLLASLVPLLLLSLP

Enterobacter = assay: In vitro antibacterial activity against Enterobacter relative to thienamycin; type: functional
Serratia = assay: In vitro antibacterial activity against Serratia relative to thienamycin; type: functional
Enterococcus = assay: In vitro antibacterial activity against Enterococcus relative to thienamycin; type: functional

For `C[C@@H](O)[C@H]1C(=O)N2C(C(=O)[O-])=C(c3ccc(C[N+]4(C)CCCC4)cc3)C[C@H]12`, the Relative potency (Staphylococcus aureus) was 0.9, the Relative potency (Escherichia coli) was 3.2 and the Relative potency (Proteus) was 8.6. The Relative potency (Klebsiella) was 2.6, the Relative potency (Pseudomonas) was 0.03 and the Susceptibility [1] was 0.03. For the same compound, the Relative potency (Enterobacter) was 7.5, the Relative potency (Serratia) was 26 and the Relative potency (Enterococcus) was 13.9.

In the case of `C[C@@H](O)[C@H]1C(=O)N2C(C(=O)[O-])=C(c3ccc(C[n+]4cccc(C(=O)O)c4)cc3)C[C@H]12`, the Susceptibility [1] is reported as 0.08.

`C[C@@H](O)[C@H]1C(=O)N2C(C(=O)[O-])=C(c3ccc(C[n+]4ccccc4)cc3)C[C@H]12` gave a Relative potency (Staphylococcus aureus) of 1.3, a Relative potency (Escherichia coli) of 3.5 and a Relative potency (Proteus) of 9.8. The Relative potency (Klebsiella) was 4.3, the Relative potency (Pseudomonas) was 0.1 and the Susceptibility [1] was 0.07. It also gave a Relative potency (Enterobacter) of 7, a Relative potency (Serratia) of 9.8 and a Relative potency (Enterococcus) of 13.

`C[C@@H](O)[C@H]1C(=O)N2C(C(=O)[O-])=C(c3ccc(C[n+]4ccc5ccccc5c4N)cc3)C[C@H]12` showed a Relative potency (Staphylococcus aureus) of 1.3, a Relative potency (Escherichia coli) of 2.7 and a Relative potency (Proteus) of 3.7. It also gave a Relative potency (Klebsiella) of 0.7, a Relative potency (Pseudomonas) of 0.05 and a Susceptibility [1] of 0.14. The Relative potency (Enterobacter) was 2.3, the Relative potency (Serratia) was 3.7 and the Relative potency (Enterococcus) was 9.2.

Work on `C[C@@H](O)[C@H]1C(=O)N2C(C(=O)[O-])=C(c3ccc(C[n+]4ccc5ccccc5c4)cc3)C[C@H]12` yielded a Relative potency (Staphylococcus aureus) of 1.3, a Relative potency (Escherichia coli) of 7.5 and a Relative potency (Proteus) of 17.1. The Relative potency (Klebsiella) was 2, the Relative potency (Pseudomonas) was 0.07 and the Susceptibility [1] was 0.08. It also gave a Relative potency (Enterobacter) of 11.3, a Relative potency (Serratia) of 36.8 and a Relative potency (Enterococcus) of 24.3.

`C[C@@H](O)[C@H]1C(=O)N2C(C(=O)O)=C(c3ccc(CN4CCN(C)CC4)cc3)C[C@H]12` was tested, and the Relative potency (Staphylococcus aureus) was 0.4, the Relative potency (Escherichia coli) was 3 and the Relative potency (Proteus) was 9.2. The Relative potency (Klebsiella) was 1, the Relative potency (Pseudomonas) was 0.04 and the Susceptibility [1] was 0.12. It also gave a Relative potency (Enterobacter) of 4.9, a Relative potency (Serratia) of 7 and a Relative potency (Enterococcus) of 5.7.

`C[C@@H](O)[C@H]1C(=O)N2C(C(=O)O)=C(c3ccc(CN4CCCCC4)cc3)C[C@H]12` was tested, and the Relative potency (Staphylococcus aureus) was 0.6, the Relative potency (Escherichia coli) was 2.5 and the Relative potency (Proteus) was 8.6. The Relative potency (Klebsiella) was 1.4, the Relative potency (Pseudomonas) was 0.05 and the Susceptibility [1] was 0.03. It also gave a Relative potency (Enterobacter) of 4, a Relative potency (Serratia) of 5.7 and a Relative potency (Enterococcus) of 6.1.

`C[C@@H](O)[C@H]1C(=O)N2C(C(=O)O)=C(c3ccc(CN4CCSCC4)cc3)C[C@H]12` showed a Relative potency (Staphylococcus aureus) of 0.9, a Relative potency (Escherichia coli) of 2.3 and a Relative potency (Proteus) of 7. For the same compound, the Relative potency (Klebsiella) was 1.3, the Relative potency (Pseudomonas) was 0.03 and the Susceptibility [1] was 0.13. It also gave a Relative potency (Enterobacter) of 3.2, a Relative potency (Serratia) of 7.5 and a Relative potency (Enterococcus) of 9.2.

`C[C@@H](O)[C@H]1C(=O)N2C(C(=O)[O-])=C(c3ccc(C[n+]4cccc5ccccc54)cc3)C[C@H]12` showed a Relative potency (Staphylococcus aureus) of 1.5, a Relative potency (Escherichia coli) of 6.1 and a Relative potency (Proteus) of 13. The Relative potency (Klebsiella) was 1.2, the Relative potency (Pseudomonas) was 0.07 and the Susceptibility [1] was 0.07. The Relative potency (Enterobacter) was 8.6, the Relative potency (Serratia) was 27.9 and the Relative potency (Enterococcus) was 24.3.

With `C[C@@H](O)[C@H]1C(=O)N2C(C(=O)O)=C(c3ccc(CN4CCCC4)cc3)C[C@H]12` the Relative potency (Staphylococcus aureus) was 0.6, the Relative potency (Escherichia coli) was 2.8 and the Relative potency (Proteus) was 8. It also gave a Relative potency (Klebsiella) of 2.1, a Relative potency (Pseudomonas) of 0.07 and a Susceptibility [1] of 0.04. It also gave a Relative potency (Enterobacter) of 5.7, a Relative potency (Serratia) of 9.8 and a Relative potency (Enterococcus) of 12.1.

Work on `C[C@@H](O)[C@H]1C(=O)N2C(C(=O)[O-])=C(c3ccc(C[n+]4ccc(N)cc4)cc3)C[C@H]12` yielded a Relative potency (Staphylococcus aureus) of 1.1, a Relative potency (Escherichia coli) of 7 and a Relative potency (Proteus) of 16. The Relative potency (Klebsiella) was 2.3, the Relative potency (Pseudomonas) was 0.2 and the Susceptibility [1] was 0.14. It also gave a Relative potency (Enterobacter) of 11.3, a Relative potency (Serratia) of 29.9 and a Relative potency (Enterococcus) of 24.3.

With `C[C@@H](O)[C@H]1C(=O)N2C(C(=O)[O-])=C(c3ccc(C[n+]4ccc(N5CCCCC5)cc4)cc3)C[C@H]12` the Relative potency (Staphylococcus aureus) was 1.1, the Relative potency (Escherichia coli) was 2.8 and the Relative potency (Proteus) was 4. The Relative potency (Klebsiella) was 0.5, the Relative potency (Pseudomonas) was 0.05 and the Susceptibility [1] was 0.11. The Relative potency (Enterobacter) was 2.5, the Relative potency (Serratia) was 2.8 and the Relative potency (Enterococcus) was 5.7.

For `C[C@@H](O)[C@H]1C(=O)N2C(C(=O)[O-])=C(c3ccc(C[N+]4(C)CCOCC4)cc3)C[C@H]12`, the Relative potency (Staphylococcus aureus) was 0.8, the Relative potency (Escherichia coli) was 2 and the Relative potency (Proteus) was 6.1. For the same compound, the Relative potency (Klebsiella) was 2.3, the Relative potency (Pseudomonas) was 0.02 and the Susceptibility [1] was 0.02. The Relative potency (Enterobacter) was 5.7, the Relative potency (Serratia) was 7.5 and the Relative potency (Enterococcus) was 10.6.

Work on `C[C@@H](O)[C@H]1C(=O)N2C(C(=O)[O-])=C(c3ccc(C[n+]4ccc(N5CCCC5)cc4)cc3)C[C@H]12` yielded a Relative potency (Staphylococcus aureus) of 0.6, a Relative potency (Escherichia coli) of 3.5 and a Relative potency (Proteus) of 7.5. For the same compound, the Relative potency (Klebsiella) was 0.8, the Relative potency (Pseudomonas) was 0.04 and the Susceptibility [1] was 0.33. It also gave a Relative potency (Enterobacter) of 3, a Relative potency (Serratia) of 7.5 and a Relative potency (Enterococcus) of 14.9.

With `C[C@H](O)[C@H]1C(=O)N2C(C(=O)O)=C(c3ccc(CN)cc3)C[C@H]12` the Susceptibility [1] was 0.02.

In the case of `C[C@@H](O)[C@H]1C(=O)N2C(C(=O)[O-])=C(c3ccc(C[n+]4cccc(N)c4)cc3)C[C@H]12`, the Relative potency (Staphylococcus aureus) is reported as 2.3, the Relative potency (Escherichia coli) is reported as 7.5 and the Relative potency (Proteus) is reported as 14.9. For the same compound, the Relative potency (Klebsiella) was 4.3, the Relative potency (Pseudomonas) was 0.1 and the Susceptibility [1] was 0.09. For the same compound, the Relative potency (Enterobacter) was 11.3, the Relative potency (Serratia) was 22.6 and the Relative potency (Enterococcus) was 17.1.

For `C[C@@H](O)[C@H]1C(=O)N2C(C(=O)[O-])=C(c3ccc(C[n+]4cccc(C#N)c4)cc3)C[C@H]12`, the Relative potency (Staphylococcus aureus) was 0.9, the Relative potency (Escherichia coli) was 4 and the Relative potency (Proteus) was 4.6. It also gave a Relative potency (Klebsiella) of 2.1, a Relative potency (Pseudomonas) of 0.1 and a Susceptibility [1] of 0.06. The Relative potency (Enterobacter) was 9.8, the Relative potency (Serratia) was 11.3 and the Relative potency (Enterococcus) was 10.6.

With `C[C@@H](O)[C@H]1C(=O)N2C(C(=O)[O-])=C(c3ccc(C[n+]4ccc(N5CCOCC5)cc4)cc3)C[C@H]12` the Relative potency (Staphylococcus aureus) was 0.5, the Relative potency (Escherichia coli) was 4 and the Relative potency (Proteus) was 4.6. It also gave a Relative potency (Klebsiella) of 2.1, a Relative potency (Pseudomonas) of 0.1 and a Susceptibility [1] of 0.06. For the same compound, the Relative potency (Enterobacter) was 9.8, the Relative potency (Serratia) was 11.3 and the Relative potency (Enterococcus) was 4.6.

With `C[C@@H](O)[C@H]1C(=O)N2C(C(=O)[O-])=C(c3ccc(C[n+]4cccc(C(F)(F)F)c4)cc3)C[C@H]12` the Relative potency (Staphylococcus aureus) was 1.1, the Relative potency (Escherichia coli) was 3 and the Relative potency (Proteus) was 3.7. The Relative potency (Klebsiella) was 2.8, the Relative potency (Pseudomonas) was 0.05 and the Susceptibility [1] was 0.04. For the same compound, the Relative potency (Enterobacter) was 5.7, the Relative potency (Serratia) was 13 and the Relative potency (Enterococcus) was 8.

Work on `C[C@@H](O)[C@H]1C(=O)N2C(C(=O)[O-])=C(c3ccc(C[n+]4cc(N)cc5ccccc54)cc3)C[C@H]12` yielded a Relative potency (Staphylococcus aureus) of 1.9, a Relative potency (Escherichia coli) of 3.7 and a Relative potency (Proteus) of 9.2. For the same compound, the Relative potency (Klebsiella) was 0.9, the Relative potency (Pseudomonas) was 0.05 and the Susceptibility [1] was 0.09. It also gave a Relative potency (Enterobacter) of 3.7, a Relative potency (Serratia) of 9.2 and a Relative potency (Enterococcus) of 12.1.

For `CC(O)[C@H]1C(=O)N2C(C(=O)O)=C(c3ccc(CN)cc3)C[C@H]12` (some centres undefined), the Relative potency (Staphylococcus aureus) was 1.5, the Relative potency (Escherichia coli) was 3.5 and the Relative potency (Proteus) was 6.5. The Relative potency (Klebsiella) was 3.2, the Relative potency (Pseudomonas) was 0.02 and the Relative potency (Enterobacter) was 11. It also gave a Relative potency (Serratia) of 5.3 and a Relative potency (Enterococcus) of 9.2.

Work on `C[C@@H](O)[C@H]1C(=O)N2C(C(=O)[O-])=C(c3ccc(C[n+]4ccccc4N)cc3)C[C@H]12` yielded a Relative potency (Staphylococcus aureus) of 1.3, a Relative potency (Escherichia coli) of 2.8 and a Relative potency (Proteus) of 8. For the same compound, the Relative potency (Klebsiella) was 2.6, the Relative potency (Pseudomonas) was 0.08 and the Susceptibility [1] was 0.11. The Relative potency (Enterobacter) was 6.1, the Relative potency (Serratia) was 11.3 and the Relative potency (Enterococcus) was 21.1.

For `C[C@@H](O)[C@H]1C(=O)N2C(C(=O)[O-])=C(c3ccc(C[n+]4ccc(N5CCSCC5)cc4)cc3)C[C@H]12`, the Relative potency (Staphylococcus aureus) was 1.2, the Relative potency (Escherichia coli) was 5.3 and the Relative potency (Proteus) was 7. For the same compound, the Relative potency (Klebsiella) was 1.1, the Relative potency (Pseudomonas) was 0.04 and the Susceptibility [1] was 0.09. The Relative potency (Enterobacter) was 4.6, the Relative potency (Serratia) was 4.9 and the Relative potency (Enterococcus) was 4.9.

Compound `C[C@@H](O)[C@H]1C(=O)N2C(C(=O)[O-])=C(c3ccc(C[N+]4(C)CCCCC4)cc3)C[C@H]12` has a Relative potency (Staphylococcus aureus) of 0.8, a Relative potency (Escherichia coli) of 5.3 and a Relative potency (Proteus) of 9.8. For the same compound, the Relative potency (Klebsiella) was 1.9, the Relative potency (Pseudomonas) was 0.03 and the Susceptibility [1] was 0.03. For the same compound, the Relative potency (Enterobacter) was 8, the Relative potency (Serratia) was 11.3 and the Relative potency (Enterococcus) was 14.9.
